In ChEMBL document CHEMBL6092168, “Identification of novel indolinone derivatives as CTSC inhibitors to treat inflammatory bowel disease by modulating inflammatory factors” (Eur J Med Chem, 2024):
pIC50: −log10 of the molar value. The source made the active and inactive calls. The rule behind the calls is not given here.

How the values were obtained:
RAW264.7 [1] = experiment: Anti-inflammatory activity in mouse RAW264.7 cells assessed as inhibition of LPS-induced IL-1beta production at 5 uM preincubated for 1 hr followed by LPS addition and measured after 24 hrs by ELISA relative to control; type: functional
RAW264.7 [2] = experiment: Anti-inflammatory activity in mouse RAW264.7 cells assessed as inhibition of LPS-induced NO production preincubated for 1 hr followed by LPS addition and measured after 24 hrs by Griess reagent based assay; type: functional, cell-based
RAW264.7 [3] = experiment: Anti-inflammatory activity in mouse RAW264.7 cells assessed as inhibition of LPS-induced TNF-alpha production at 5 uM preincubated for 1 hr followed by LPS addition and measured after 24 hrs by ELISA relative to control; type: functional
Dipeptidyl peptidase 1 = Dipeptidyl peptidase 1 (Homo sapiens, UniProt P53634); experiment: Inhibition of human recombinant Cathepsin C using Gly-Phe-AFC as substrate preincubated for 3 hrs followed by substrate addition and measured after 1 hr by fluorescence based multifunctional microplate reader analysis
Mus musculus [4] = experiment: Anti-inflammatory activity in DSS-induced ulcerative colitis male C57BL/6 mouse model assessed as reduction in proteinase 3 level in colon at 60 mg/kg administered via gavage for 10 days relative to control; type: functional; conditions: time 10.0 day
Mus musculus [5] = experiment: Anti-inflammatory activity in DSS-induced ulcerative colitis male C57BL/6 mouse model assessed as reduction in Cathepsin G level in serum at 60 mg/kg administered via gavage for 10 days relative to control; type: functional; conditions: time 10.0 day
Mus musculus [6] = experiment: Anti-inflammatory activity in DSS-induced ulcerative colitis male C57BL/6 mouse model assessed as reduction in Cathepsin C level in colon at 60 mg/kg administered via gavage for 10 days; type: functional; conditions: time 10.0 day
Mus musculus [7] = experiment: Anti-inflammatory activity in DSS-induced ulcerative colitis male C57BL/6 mouse model assessed as reduction in neutrophil elastase level in colon at 60 mg/kg administered via gavage for 10 days relative to control; type: functional; conditions: time 10.0 day
Mus musculus [8] = experiment: Anti-inflammatory activity in DSS-induced ulcerative colitis male C57BL/6 mouse model assessed as reduction in Cathepsin C level in serum at 60 mg/kg administered via gavage for 10 days relative to control; type: functional; conditions: time 10.0 day
Mus musculus [9] = experiment: Anti-inflammatory activity in DSS-induced ulcerative colitis male C57BL/6 mouse model assessed as reduction in neutrophil elastase level in serum at 60 mg/kg administered via gavage for 10 days relative to control; type: functional; conditions: time 10.0 day
Mus musculus [10] = experiment: Anti-inflammatory activity in DSS-induced ulcerative colitis male C57BL/6 mouse model assessed as reduction in Cathepsin G level in colon at 60 mg/kg administered via gavage for 10 days relative to control; type: functional; conditions: time 10.0 day

Chain of Dipeptidyl peptidase 1 (P53634 25-134 limits assumed): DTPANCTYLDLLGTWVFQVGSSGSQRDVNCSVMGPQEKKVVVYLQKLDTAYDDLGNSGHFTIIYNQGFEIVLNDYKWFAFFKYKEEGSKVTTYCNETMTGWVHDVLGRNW
Chain of Dipeptidyl peptidase 1 (P53634 231-394 limits assumed): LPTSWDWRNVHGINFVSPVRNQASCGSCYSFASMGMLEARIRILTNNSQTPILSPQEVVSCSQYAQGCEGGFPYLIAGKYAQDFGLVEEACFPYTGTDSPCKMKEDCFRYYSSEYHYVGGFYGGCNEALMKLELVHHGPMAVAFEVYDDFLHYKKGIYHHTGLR
Chain of Dipeptidyl peptidase 1 (P53634 395-463 limits assumed): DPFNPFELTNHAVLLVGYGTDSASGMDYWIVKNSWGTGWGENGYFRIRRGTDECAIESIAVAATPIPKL

pIC50 (RAW264.7 [2]) | pIC50 (Dipeptidyl peptidase 1) | SMILES | Activity (RAW264.7 [1]; time 25.0 hrs) | Activity (RAW264.7 [3]; time 25.0 hrs) | Activity (RAW264.7 [1]; time 25 hrs) | Activity (RAW264.7 [3]; time 25 hrs) | further results
< 4.30 | < 6.00 | CC(C)c1cccc(NC(=O)c2cccc(-c3ccc(CN4CCOCC4)cc3)c2)c1 | inactive | inactive |  |  | 
5.01 | 6.58 | O=C(Nc1cccc(O)c1)c1cccc(-c2ccc(CN3CCOCC3)cc2)c1 |  |  | 55.7% | 62.2% | 
< 4.30 | < 6.00 | CNC(=O)c1ccc(NC(=O)c2cccc(-c3ccc(CN4CCOCC4)cc3)c2)cc1 | inactive | inactive |  |  | 
< 4.30 | < 6.00 | CCc1ccccc1NC(=O)c1cccc(-c2ccc(CN3CCOCC3)cc2)c1 | inactive | inactive |  |  | 
< 4.30 | < 6.00 | N#Cc1ccc(-c2cccc3c2NC(=O)/C3=C\c2ccnc3ccccc23)cc1 | inactive | inactive |  |  | 
< 4.30 | 6.24 | O=C(Nc1ccc(Cl)cc1)c1cccc(-c2ccc(CN3CCOCC3)cc2)c1 | inactive | inactive |  |  | 
4.79 | 6.44 | NC(=O)c1cccc(NC(=O)c2cccc(-c3ccc(CN4CCOCC4)cc3)c2)c1 |  |  | 35.6% | 41.9% | 
5.01 | 6.72 | O=C1Nc2c(cccc2-c2ccc3[nH]ncc3c2)/C1=C/c1ccnc2ccccc12 |  |  | 62% | 41.3% | 
5.01 | 6.60 | O=C(Nc1cncc2ccccc12)c1cccc(-c2ccc(CN3CCOCC3)cc2)c1 |  |  | 65.6% | 62.5% | 
< 4.30 | 6.14 | COc1ccc(NC(=O)c2cccc(-c3ccc(CN4CCOCC4)cc3)c2)cc1 | inactive | inactive |  |  | 
5.49 | 6.79 | CN1CCN(Cc2ccc(-c3cccc4c3NC(=O)/C4=C\c3ccnc4ccccc34)cc2)CC1 |  |  | 80.4% | 70.4% | 
5.00 | 6.60 | O=C(Nc1cccc2ccccc12)c1cccc(-c2ccc(CN3CCOCC3)cc2)n1 |  |  | 68.5% | 59.6% | 
< 4.30 | 6.31 | COc1cccc(NC(=O)c2cccc(-c3ccc(CN4CCOCC4)cc3)c2)c1 |  |  | 25.5% | 20.4% | 
< 4.30 | < 6.00 | CC(=O)Nc1cccc(NC(=O)c2cccc(-c3ccc(CN4CCOCC4)cc3)c2)c1 | inactive | inactive |  |  | 
< 4.30 | < 6.00 | NC(=O)c1ccc(NC(=O)c2cccc(-c3ccc(CN4CCOCC4)cc3)c2)cc1 | inactive | inactive |  |  | 
5.54 | 6.52 | O=C(Nc1ccc2ccccc2c1)c1cccc(-c2ccc(CN3CCOCC3)cc2)n1 |  |  | 69.3% | 57.4% | 
< 4.30 | < 6.00 | O=C(Nc1cccc(F)c1)c1cccc(-c2ccc(CN3CCOCC3)cc2)c1 | inactive | inactive |  |  | 
< 4.30 | < 6.00 | O=C1Nc2c(cccc2-c2ccc(OC(F)(F)F)cc2)/C1=C/c1ccnc2ccccc12 | inactive | inactive |  |  | 
< 4.30 | 6.42 | O=C(Nc1cccc(Cl)c1)c1cccc(-c2ccc(CN3CCOCC3)cc2)c1 |  |  | 40.2% | 35.5% | 
5.54 | 6.56 | O=C(Nc1ccnc2ccccc12)c1cccc(-c2ccc(CN3CCOCC3)cc2)n1 |  |  | 70.2% | 62.2% | 

pIC50 (RAW264.7 [2]) | pIC50 (Dipeptidyl peptidase 1) | SMILES | Activity (RAW264.7 [1]; time 25.0 hrs) | Activity (RAW264.7 [3]; time 25.0 hrs) | Activity (RAW264.7 [1]; time 25 hrs) | Activity (RAW264.7 [3]; time 25 hrs) | further results
5.09 | 6.58 | O=C(Nc1cccc2ccccc12)c1cccc(-c2ccc(CN3CCOCC3)cc2)c1 |  |  | 63.2% | 54.3% | 
< 4.30 | < 6.00 | CNC(=O)c1ccccc1NC(=O)c1cccc(-c2ccc(CN3CCOCC3)cc2)c1 | inactive | inactive |  |  | 
4.73 | < 6.00 | Cc1ccc(-c2cccc3c2NC(=O)/C3=C\c2ccnc3ccccc23)cc1 | inactive | inactive |  |  | 
4.82 | < 6.00 | CN(C)c1ccc(-c2cccc3c2NC(=O)/C3=C\c2ccnc3ccccc23)cc1 | inactive | inactive |  |  | 
5.21 | 6.51 | Nc1c(C(=O)Nc2ccc3ccccc3c2)cccc1-c1ccc(CN2CCOCC2)cc1 |  |  | 64.2% | 69.7% | 
4.79 | 6.54 | NC(=O)c1ccc(-c2cccc3c2NC(=O)/C3=C\c2ccnc3ccccc23)cc1 | inactive | inactive |  |  | 
< 4.30 | < 6.00 | CC(=O)c1ccc(NC(=O)c2cccc(-c3ccc(CN4CCOCC4)cc3)c2)cc1 | inactive | inactive |  |  | 
< 4.30 | 6.61 | O=C(Nc1nccc2ccccc12)c1cccc(-c2ccc(CN3CCOCC3)cc2)n1 | inactive | inactive |  |  | 
< 4.30 | < 6.00 | Cc1cccc(NC(=O)c2cccc(-c3ccc(CN4CCOCC4)cc3)c2)c1 | inactive | inactive |  |  | 
 |  | Nc1ccc(O)c(C(=O)O)c1 |  |  |  |  | Activity (Mus musculus [4]): Active; Activity (Mus musculus [5]): Active; Activity (Mus musculus [6]): Active; Activity (Mus musculus [7]): Active; Activity (Mus musculus [8]): Active; Activity (Mus musculus [9]): Active; Activity (Mus musculus [10]): Active
5.08 | 6.49 | Nc1c(C(=O)Nc2nccc3ccccc23)cccc1-c1ccc(CN2CCOCC2)cc1 |  |  | 44.2% | 33.3% | 
< 4.30 | < 6.00 | COc1ccc(-c2cccc3c2NC(=O)/C3=C\c2ccnc3ccccc23)cc1 | inactive | inactive |  |  | 
4.69 | 6.53 | CC(=O)c1cccc(NC(=O)c2cccc(-c3ccc(CN4CCOCC4)cc3)c2)c1 |  |  | 47.4% | 50.3% | 
< 4.30 | < 6.00 | O=C1Nc2c(cccc2-c2ccc(C(F)(F)F)cc2)/C1=C/c1ccnc2ccccc12 | inactive | inactive |  |  | 
< 4.30 | < 6.00 | Nc1ccc(NC(=O)c2cccc(-c3ccc(CN4CCOCC4)cc3)c2)cc1 | inactive | inactive |  |  | 
4.79 | 6.52 | CC(=O)Nc1ccc(-c2cccc3c2NC(=O)/C3=C\c2ccnc3ccccc23)cc1 | inactive | inactive |  |  | 
5.12 | 6.65 | O=C(Nc1ccc2ccccc2c1)c1cccc(-c2ccc(CN3CCOCC3)cc2)c1 |  |  | 68.8% | 63.2% | 
5.09 | 6.31 | Nc1ccc(-c2cccc3c2NC(=O)/C3=C\c2ccnc3ccccc23)cc1 | inactive | inactive |  |  | 
< 4.30 | 6.11 | CC(=O)Nc1ccc(NC(=O)c2cccc(-c3ccc(CN4CCOCC4)cc3)c2)cc1 | inactive | inactive |  |  | 
